Patent publication US12398121B2 (Nuvation Bio Inc., priority 2018, dated 2025)

Columns and labels:
Assay type in all cases: cell-based
LNCaP cells = experiment: Cell proliferation assay (CellTiter Glo), LNCaP; conditions: Homo sapiens, 168 h, read-out: LNCaP IC50
Protocol: (§1) IC50 values were calculated and graphed using the model “log(inhibitor) vs. response—Variable slope” included in GraphPad Prism 5 (San Diego, CA). The Ki values were further calculated using the equation below where [L] was the radioligand concentration (1 nM) using in this study. Kd value was 0.332 nM. Ki=IC50/(1+[L]/Kd) c. AR transactivation: Human AR cloned into a CMV vector backbone was used for the transactivation study. HEK-293 cells were plated at 80,000 cells per well of a 24 well plate in DME+5% csFBS. Twenty four hours later, the cells were transfected using Lipofectamine (Invitrogen, Carlsbad, CA) with 0.25 μg GRE-LUC, 0.01 μg CMV-LUC (renilla luciferase) and 25 ng of the AR in OPTIMEM medium. The cells were treated 24 hrs after transfection with various ligands (10^−12 to 10^−5 M final concentrations) and luciferase assay were performed 48 hours after transfection. Firefly values were normalized to renilla luciferase values and the values were represented as relative light units (RLU). Agonist and antagonist assays for the test article were performed in the absence and in the combination with 0.1 nM R1881, respectively. Data were represented as EC50 (for agonists) and IC50 (for antagonists) obtained from four parameter logistics curve. Cell culture and proliferation assays: LNCaP, PC-3, 22RV1, MCF-7, HT-29, and HCT-116 cells were procured from American Type Culture Collection (ATCC). Cells were cultured in medium recommended by the ATCC. Cell culture medium was obtained from Fisher scientific (Waltham, MA) and serum was obtained from Hyclone (San Angelo, TX).
Cells were plated at varying density in the respective growth medium in 96 well plates. 24 hr later, cells were treated, in triplicate or quadruplicate, with test articles prepared in a range of concentrations by series dilution of DMSO stock solutions in growth medium and incubated for three to seven days. The number of viable 22RV1 and HT-29 cells was measured using CellTiter Glo assay (CTG, Promega, Madison, WI) after three days of treatment. The other types of cancer cells were re-treated at three or four days and the number of viable cells was measured using CTG assay after a total treatment time of six or seven days. Cell viability data were plotted using GraphPad Prism (GraphPad Software, Inc., San Diego, CA). In addition, a nonlinear regression model with a sigmoidal dose response and variable slope within GraphPad Prism was used to calculate the IC50 value of individual test articles. Additional cell proliferation assays: Other cancer cell lines are tested in a cell proliferation assay. For example, SK-OV-3 or OVCAR3 ovarian cancer cells are tested. Cells are cultured in medium recommended by the supplier (e.g., ATCC or JCRB Cell Bank), at 37° C. in a 5% CO2 environment. For the proliferation assay, cells are plated in the growth medium in 96 well plates. Seeding density is adjusted according to the cell type. 24 hr later, cells are treated, in triplicate or quadruplicate, with test articles prepared in a range of concentrations by series dilution of DMSO stock solutions in growth medium, and typically incubated for three to seven days, with test article-containing medium replaced after three or four days. The number of viable cells is measured using CellTiter Glo assay (CTG, Promega, Madison, WI) or similar. Cell viability data are plotted using GraphPad Prism (GraphPad Software, Inc., San Diego, CA). […]

HCT-116 cells = experiment: Cell proliferation assay (CellTiter Glo), HCT-116; conditions: Homo sapiens, HCT-116, 168 h, read-out: HCT-116 IC50
Protocol: as §1
(§2) Cells were plated at varying density in the respective growth medium in 96 well plates. 24 hr later, cells were treated, in triplicate or quadruplicate, with test articles prepared in a range of concentrations by series dilution of DMSO stock solutions in growth medium and incubated for three to seven days. The number of viable 22RV1 and HT-29 cells was measured using CellTiter Glo assay (CTG, Promega, Madison, WI) after three days of treatment. The other types of cancer cells were re-treated at three or four days and the number of viable cells was measured using CTG assay after a total treatment time of six or seven days. Cell viability data were plotted using GraphPad Prism (GraphPad Software, Inc., San Diego, CA). In addition, a nonlinear regression model with a sigmoidal dose response and variable slope within GraphPad Prism was used to calculate the IC50 value of individual test articles. Additional cell proliferation assays: Other cancer cell lines are tested in a cell proliferation assay. For example, SK-OV-3 or OVCAR3 ovarian cancer cells are tested. […] The number of viable cells is measured using CellTiter Glo assay (CTG, Promega, Madison, WI) or similar. […]

PC-3 cells = experiment: Cell proliferation assay (CellTiter Glo), PC-3; conditions: Homo sapiens, PC-3, 168 h, read-out: PC-3 IC50
Protocol: as §1, §2

MCF-7 cells = experiment: Cell proliferation assay (CellTiter Glo), MCF-7; conditions: Homo sapiens, MCF7, 168 h; cell growth inhibition, six or seven days total treatment
Protocol: as §1
Cells were plated at varying density in the respective growth medium in 96 well plates. […] The number of viable 22RV1 and HT-29 cells was measured using CellTiter Glo assay (CTG, Promega, Madison, WI) after three days of treatment. The other types of cancer cells were re-treated at three or four days and the number of viable cells was measured using CTG assay after a total treatment time of six or seven days. […] The number of viable cells is measured using CellTiter Glo assay (CTG, Promega, Madison, WI) or similar. […]

SMILES	IC50 (LNCaP cells) [nM]	IC50 (HCT-116 cells) [nM]	IC50 (PC-3 cells) [nM]	IC50 (MCF-7 cells) [nM]
CC1(C)C(=O)N(c2ccc(C#N)c(C(F)(F)F)c2)C(=S)N1c1ccc(C(=O)NCCCCCC(=O)N2CCN(C(=O)c3cc(Cc4n[nH]c(=O)c5ccccc45)ccc3F)CC2)c(F)c1 [Compound 1.1, 4-(3-(4-cyano-3-(trifluoromethyl)phenyl)-5,5-dimethyl-4-oxo-2-thioxoimidazolidin-1-yl)-2-fluoro-N-(6-(4-(2-fluoro-5-((4-oxo-3,4-dihydrophthalazin-1-yl)methyl)benzoyl)piperazin-1-yl)-6-oxohexyl)benzamide]	590	310	50	
C[C@]12CCC(=O)C[C@@H]1CC[C@@H]1[C@@H]2CC[C@]2(C)[C@@H](OCCCCCC(=O)N3CCN(C(=O)c4cc(Cc5n[nH]c(=O)c6ccccc56)ccc4F)CC3)CC[C@@H]12 [Compound 1.2, 4-(3-(4-(6-(((5S,8R,9S,10S,13S,14S,17S)-10,13-dimethyl-3-oxohexadecahydro-1H-cyclopenta[a]phenanthren-17-yl)oxy)hexanoyl)piperazine-1-carbonyl)-4-fluorobenzyl)phthalazin-1(2H)-one]	790	110	240	
CN(CCCCCC(=O)N1CCN(C(=O)c2cc(Cc3n[nH]c(=O)c4ccccc34)ccc2F)CC1)CCOc1ccc(C(=O)c2c(-c3ccc(O)cc3)sc3cc(O)ccc23)cc1 [Compound 2.4, 4-(4-fluoro-3-(4-(6-((2-(4-(6-hydroxy-2-(4-hydroxyphenyl)benzo[b]thiophene-3-carbonyl)phenoxy)ethyl)(methyl)amino)hexanoyl)piperazine-1-carbonyl)benzyl)phthalazin-1(2H)-one]				11000
O=C(c1ccc(OCCN2CCN(C(=O)c3cc(Cc4n[nH]c(=O)c5ccccc45)ccc3F)CC2)cc1)c1c(-c2ccc(O)cc2)sc2cc(O)ccc12 [Compound 2.13, 4-(4-fluoro-3-(4-(2-(4-(6-hydroxy-2-(4-hydroxyphenyl)benzo[b]thiophene-3-carbonyl)phenoxy)ethyl)piperazine-1-carbonyl)benzyl)phthalazin-1(2H)-one]				3600
CCC(=C(c1ccc(O)cc1)c1ccc(OCCN2CCN(C(=O)c3cc(Cc4n[nH]c(=O)c5ccccc45)ccc3F)CC2)cc1)c1ccccc1 [Compound 2.14, 4-(4-fluoro-3-(4-(2-(4-(1-(4-hydroxyphenyl)-2-phenylbut-1-enyl)phenoxy)ethyl)piperazine-1-carbonyl)benzyl)pthalazin-1(2H)-one]				9300
